In US4399124A, “Peptides having immunostimulating properties and pharmaceutical compositions containing them” (Institut Pasteur, priority 1979, dated 1983):
Ends that are not written are not given here.

Experiments:
Salmonella typhimurium = assay: Blood purging of Salmonella typhimurium in treated mice; assay type: in vivo; conditions: 0.5 ml of 10^-4 M i.v. 12 h before i.v. 2×10^7 Salmonella typhimurium; NaCl control 1.20 × 10^6 ± 0.28
Procedure: The increase in the bactericidal power of the macrophages always accompanying an increase in their ingestion capacities, it was sought to measure the latter with Salmonella typhimurium which necessitates for its phagocytosis, contrary to Listeria monocytogenes, opsonizing antibodies or a considerable stimulation of the hepatic macrophages. For this, the mice were treated under the same conditions as in the preceding experiment but were inoculated with 2×10^7 Salmonella typhimurium intravenously.

Listeria monocytogenes = assay: Multiplication of Listeria monocytogenes in the liver and the spleen of treated mice; assay type: in vivo; conditions: 0.5 ml of 10^-4 M i.v. 12 h before i.v. 0.3×10^5 Listeria; NaCl control 7 × 10^7 ± 2.4
Procedure: Mice in four batches of 4 animals were treated under the same conditions as previously. Twelve hours later, the mice were all inoculated, intravenously with 0.3×10^5 Listeria monocytogenes. The table below summarizes the results obtained. Again, the mice treated by the active principles show, in their spleen and especially in their liver, a number of Listeria up to 500 times smaller than in the liver of the control animals.

Lewis carcinoma (3LL) = assay: Resistance of treated mice to Lewis carcinoma (3LL); assay type: in vivo, C57B1/6 mice; conditions: product injected 24 hours after inoculation; for Development of the tumor (difference in thickness between tumor paw and contralateral paw): 10^5 3LL cells into plantar pad, measured 9 days later, NaCl control 326 ± 34; for Number of pulmonary metastases: tumor paw amputated, autopsy 20 days after inoculation, NaCl control 5.3 ± 2.7
Procedure: This tumor is maintained in the laboratory as has been described (Fauve, R. M. and Hevin, B., Ann. Immunol. (Inst. Pasteur), 1977, 128C, 923-928). 3LL cells were cultured in Eagle medium supplemented with 15% of foetal calf serum and, after washing and resuspending in Eagle medium without serum, injected in the proportion of 10^5 cells in a volume of […] into the plantar pad of C57B1/6 mice. The difference between the thickness of the paw where the tumor is developed and the contralateral paw enables the development of the tumor to be evaluated.
In all cases, the products tested were injected 24 hours after inoculation of the malignant cells and, 9 days later, after having measured the thickness of the paws, the paw bearing the tumor was amputated and, 11 days later, namely 20 days after inoculation of the tumors, the animals were autopsied and the number of metastatic pumonary nodules counted. The following table summarizes the results obtained.

guinea pig ileon = conditions: cited from earlier work

## KPPGF [L5, Lysyl→prolyl→prolyl→glycyl→phenylalanine]
Salmonella typhimurium
  Number of Salmonella typhimurium per ml of blood 2 h after infection: 9.35 × 10^4 ± 7.9 per ml of blood
Listeria monocytogenes
  Number of Listeria monocytogenes in the spleen of mice 48 h after infection: 1.8 × 10^7 ± 0.28
Lewis carcinoma (3LL)
  Development of the tumor (difference in thickness between tumor paw and contralateral paw): 295 ± 25
  Number of pulmonary metastases: 3.7 ± 2

## HPPGF [H5, Histidyl→prolyl→prolyl→glycyl→phenylalanine]
Salmonella typhimurium
  Number of Salmonella typhimurium per ml of blood 2 h after infection: 7.15 × 10^4 ± 0.78 per ml of blood
Listeria monocytogenes
  Number of Listeria monocytogenes in the spleen of mice 48 h after infection: 2.4 × 10^7 ± 1.3
Lewis carcinoma (3LL)
  Development of the tumor (difference in thickness between tumor paw and contralateral paw): 272 ± 41
  Number of pulmonary metastases: 0.5 ± 0.10

## RPPGF [1-5, Arginyl→prolyl→prolyl→glycyl→phenylalanine]
Guinea pig ileon
  Activity with respect to the guinea pig ileon: totally inactive
Salmonella typhimurium
  Number of Salmonella typhimurium per ml of blood 2 h after infection: 3.05 × 10^5 ± 1.6 per ml of blood
Listeria monocytogenes
  Number of Listeria monocytogenes in the spleen of mice 48 h after infection: 3.1 × 10^7 ± 1
Lewis carcinoma (3LL)
  Development of the tumor (difference in thickness between tumor paw and contralateral paw): 284 ± 33
  Number of pulmonary metastases: 0.7 ± 0.11
